How the values were obtained:
Type in all cases: in vivo
[1] = test system: ducksalad (Heteranthera limosa); experiment: Test B flooded paddy test, plant response rating; conditions: 250 g ai/ha; Flood; scale of 0 to 100 where 0 is no effect and 100 is complete control; 13 to 15 days
Text: (§1) At time of treatment, test pots were flooded to 3 cm above the soil surface, treated by application of test compounds directly to the paddy water, and then maintained at that water depth for the duration of the test. Treated plants and controls were maintained in a greenhouse for 13 to 15 days, after which time all species were compared to controls and visually evaluated. […] A dash (-) response means no test result.

[2] = test system: barnyardgrass (Echinochloa crus-galli); experiment: Test B flooded paddy test, plant response rating; conditions: 250 g ai/ha; Flood; scale of 0 to 100 where 0 is no effect and 100 is complete control; 13 to 15 days
Text: as §1

[3] = test system: sedge, umbrella (small-flower umbrella sedge, Cyperus difformis); experiment: Test B flooded paddy test, plant response rating; conditions: 250 g ai/ha; Flood; scale of 0 to 100 where 0 is no effect and 100 is complete control; 13 to 15 days
Text: as §1

[4] = test system: rice (Oryza sativa); experiment: Test B flooded paddy test, plant response rating; conditions: 250 g ai/ha; Flood; scale of 0 to 100 where 0 is no effect and 100 is complete control; 13 to 15 days
Text: as §1

[5] = test system: corn (Zea mays); experiment: Test A postemergence, visual injury rating; conditions: 0 is no effect, 100 is complete control; for Corn plant response rating: 31 g ai/ha, 0 to 100 scale, approximately 10 days
Text: (§2) Seeds of plant species selected from barnyardgrass (Echinochloa crus-galli), kochia (Kochia scoparia), ragweed (common ragweed, Ambrosia elatior), Italian ryegrass (Lolium multiflorum), large (Lg) crabgrass (Digitaria sanguinalis), giant foxtail (Setaria faberii), morningglory (Ipomoea spp.), pigweed (Amaranthus retroflexus), velvetleaf (Abutilon theophrasti), wheat (Triticum aestivum), and corn (Zea mays) were planted into a blend of loam soil and sand and treated preemergence with a directed soil spray using test chemicals formulated in a non-phytotoxic solvent mixture which included a surfactant.
(§3) At the same time, plants selected from these crop and weed species and also blackgrass (Alopecurus myosuroides), and galium (catchweed bedstraw, Galium aparine) were planted in pots containing the same blend of loam soil and sand and treated with postemergence applications of test chemicals formulated in the same manner. Plants ranged in height from 2 to 10 cm and were in the one- to two-leaf stage for the postemergence treatment. Treated plants and untreated controls were maintained in a greenhouse for approximately 10 days, after which time all treated plants were compared to untreated controls and visually evaluated for injury. Plant response ratings, summarized in Table A, are based on a 0 to 100 scale where 0 is no effect and 100 is complete control. A dash (-) response means no test result.

[6] = test system: wheat (Triticum aestivum); experiment: Test A postemergence, visual injury rating; conditions: 0 is no effect, 100 is complete control; for Wheat plant response rating: 31 g ai/ha, 0 to 100 scale, approximately 10 days
Text: as §2, §3

[7] = test system: pigweed (Amaranthus retroflexus); experiment: Test A postemergence, visual injury rating; conditions: 0 is no effect, 100 is complete control; for Pigweed plant response rating: 31 g ai/ha, 0 to 100 scale, approximately 10 days
Text: as §2, §3

[8] = test system: ragweed (common ragweed, Ambrosia elatior); experiment: Test A postemergence, visual injury rating; conditions: 0 is no effect, 100 is complete control; for Ragweed plant response rating: 31 g ai/ha, 0 to 100 scale, approximately 10 days
Text: as §2, §3

[9] = test system: kochia (Kochia scoparia); experiment: Test A postemergence, visual injury rating; conditions: 0 is no effect, 100 is complete control; for Kochia plant response rating: 31 g ai/ha, 0 to 100 scale, approximately 10 days
Text: as §2, §3

[10] = test system: blackgrass (Alopecurus myosuroides); experiment: Test A postemergence, visual injury rating; conditions: 0 is no effect, 100 is complete control; for Blackgrass plant response rating: 31 g ai/ha, 0 to 100 scale, approximately 10 days
Text: as §2, §3

[11] = test system: giant foxtail (Setaria faberii); experiment: Test A postemergence, visual injury rating; conditions: 0 is no effect, 100 is complete control; for Foxtail, Giant plant response rating: 31 g ai/ha, 0 to 100 scale, approximately 10 days
Text: as §2, §3

[12] = test system: barnyardgrass (Echinochloa crus-galli); experiment: Test A postemergence, visual injury rating; conditions: 0 is no effect, 100 is complete control; for Barnyardgrass plant response rating: 31 g ai/ha, 0 to 100 scale, approximately 10 days
Text: as §2, §3

[13] = test system: Italian ryegrass (Lolium multiflorum); experiment: Test A postemergence, visual injury rating; conditions: 0 is no effect, 100 is complete control; for Ryegrass, Italian plant response rating: 31 g ai/ha, 0 to 100 scale, approximately 10 days
Text: as §2, §3

[14] = test system: galium (catchweed bedstraw, Galium aparine); experiment: Test A postemergence, visual injury rating; conditions: 0 is no effect, 100 is complete control; for Galium plant response rating: 31 g ai/ha, 0 to 100 scale, approximately 10 days
Text: as §2, §3

[15] = test system: pigweed (Amaranthus retroflexus); experiment: Test A preemergence, visual injury rating; conditions: for Plant response rating, Pigweed: 31 g ai/ha, 0 to 100 scale, 0 no effect, 100 complete control; for Pigweed plant response rating: 0 to 100 scale (0 no effect, 100 complete control)
Text: as §2, §3

[16] = test system: ragweed (common ragweed, Ambrosia elatior); experiment: Test A preemergence, visual injury rating; conditions: for Plant response rating, Ragweed: 31 g ai/ha, 0 to 100 scale, 0 no effect, 100 complete control; for Ragweed plant response rating: 0 to 100 scale (0 no effect, 100 complete control)
Text: as §2, §3

[17] = test system: kochia (Kochia scoparia); experiment: Test A preemergence, visual injury rating; conditions: for Plant response rating, Kochia: 31 g ai/ha, 0 to 100 scale, 0 no effect, 100 complete control; for Kochia plant response rating: 0 to 100 scale (0 no effect, 100 complete control)
Text: as §2, §3

[18] = test system: giant foxtail (Setaria faberii); experiment: Test A preemergence, visual injury rating; conditions: for Plant response rating, Foxtail, Giant: 31 g ai/ha, 0 to 100 scale, 0 no effect, 100 complete control; for Foxtail, Giant plant response rating: 0 to 100 scale (0 no effect, 100 complete control)
Text: as §2, §3

[19] = test system: barnyardgrass (Echinochloa crus-galli); experiment: Test A preemergence, visual injury rating; conditions: for Plant response rating, Barnyardgrass: 31 g ai/ha, 0 to 100 scale, 0 no effect, 100 complete control; for Barnyardgrass plant response rating: 0 to 100 scale (0 no effect, 100 complete control)
Text: as §2, §3

[20] = test system: Italian ryegrass (Lolium multiflorum); experiment: Test A preemergence, visual injury rating; conditions: for Plant response rating, Ryegrass, Italian: 31 g ai/ha, 0 to 100 scale, 0 no effect, 100 complete control; for Ryegrass, Italian plant response rating: 0 to 100 scale (0 no effect, 100 complete control)
Text: as §2, §3

`CC(C)COC(=O)c1c(Br)cccc1Oc1ncc(Cl)cn1` [Compound 1] was tested, and the “Plant response rating, Ducksalad” value [1] was 20, the “Plant response rating, Barnyardgrass” value [2] was 0 and the “Plant response rating, Sedge, Umbrella” value [3] was 80. For the same compound, the “Plant response rating, Rice” value [4] was 0, the “Corn plant response rating” value [5] was 0 and the “Corn plant response rating (0 to 100 scale)” value ([5]; 125 g ai/ha) was 20. The “Wheat plant response rating” value [6] was 0, the “Wheat plant response rating (0 to 100 scale)” value ([6]; 125 g ai/ha) was 0 and the “Pigweed plant response rating” value [7] was 40. For the same compound, the “Pigweed plant response rating (0 to 100 scale)” value ([7]; 125 g ai/ha) was 70, the “Ragweed plant response rating” value [8] was 0 and the “Ragweed plant response rating (0 to 100 scale)” value ([8]; 125 g ai/ha) was 10. For the same compound, the “Kochia plant response rating” value [9] was 20, the “Kochia plant response rating (0 to 100 scale)” value ([9]; 125 g ai/ha) was 30 and the “Blackgrass plant response rating” value [10] was 0. The “Blackgrass plant response rating (0 to 100 scale)” value ([10]; 125 g ai/ha) was 20, the “Foxtail, Giant plant response rating” value [11] was 30 and the “Foxtail, Giant plant response rating (0 to 100 scale)” value (“Foxtail … (0 to 100 scale)” below) ([11]; 125 g ai/ha) was 60. The “Barnyardgrass plant response rating” value [12] was 20, the “Barnyardgrass plant response rating (0 to 100 scale)” value ([12]; 125 g ai/ha) was 30 and the “Ryegrass, Italian plant response rating” value [13] was 0. The “Ryegrass, Italian plant response rating (0 to 100 scale)” value (“Ryegrass … (0 to 100 scale)” below) ([13]; 125 g ai/ha) was 0, the “Galium plant response rating” value [14] was 50 and the “Galium plant response rating (0 to 100 scale)” value ([14]; 125 g ai/ha) was 70. For the same compound, the “Plant response rating, Pigweed” value [15] was 20, the “Pigweed plant response rating” value ([15]; 125 g ai/ha) was 70 and the “Plant response rating, Ragweed” value [16] was 0. For the same compound, the “Ragweed plant response rating” value ([16]; 125 g ai/ha) was 0, the “Plant response rating, Kochia” value [17] was 0 and the “Kochia plant response rating” value ([17]; 125 g ai/ha) was 40. For the same compound, the “Plant response rating, Foxtail, Giant” value [18] was 30, the “Foxtail, Giant plant response rating” value ([18]; 125 g ai/ha) was 70 and the “Plant response rating, Barnyardgrass” value [19] was 20. For the same compound, the “Barnyardgrass plant response rating” value ([19]; 125 g ai/ha) was 30, the “Plant response rating, Ryegrass, Italian” value [20] was 0 and the “Ryegrass, Italian plant response rating” value ([20]; 125 g ai/ha) was 0.
In the case of `COc1cccc(Oc2ncc(Cl)cn2)c1C(C)=O` [Compound 51], the “Plant response rating, Ducksalad” value [1] is reported as 0, the “Plant response rating, Barnyardgrass” value [2] is reported as 15 and the “Plant response rating, Sedge, Umbrella” value [3] is reported as 0. The “Plant response rating, Rice” value [4] was 15, the “Corn plant response rating” value [5] was 0 and the “Corn plant response rating (0 to 100 scale)” value ([5]; 125 g ai/ha) was 0. For the same compound, the “Wheat plant response rating” value [6] was 0, the “Wheat plant response rating (0 to 100 scale)” value ([6]; 125 g ai/ha) was 0 and the “Pigweed plant response rating” value [7] was 0. The “Pigweed plant response rating (0 to 100 scale)” value ([7]; 125 g ai/ha) was 0, the “Ragweed plant response rating” value [8] was 0 and the “Ragweed plant response rating (0 to 100 scale)” value ([8]; 125 g ai/ha) was 0. The “Kochia plant response rating” value [9] was 0, the “Kochia plant response rating (0 to 100 scale)” value ([9]; 125 g ai/ha) was 0 and the “Blackgrass plant response rating” value [10] was 0. For the same compound, the “Blackgrass plant response rating (0 to 100 scale)” value ([10]; 125 g ai/ha) was 0, the “Foxtail, Giant plant response rating” value [11] was 0 and the “Foxtail … (0 to 100 scale)” value ([11]; 125 g ai/ha) was 0. For the same compound, the “Barnyardgrass plant response rating” value [12] was 0, the “Barnyardgrass plant response rating (0 to 100 scale)” value ([12]; 125 g ai/ha) was 0 and the “Ryegrass, Italian plant response rating” value [13] was 0. The “Ryegrass … (0 to 100 scale)” value ([13]; 125 g ai/ha) was 0, the “Galium plant response rating” value [14] was 0 and the “Galium plant response rating (0 to 100 scale)” value ([14]; 125 g ai/ha) was 10. The “Plant response rating, Pigweed” value [15] was 0, the “Pigweed plant response rating” value ([15]; 125 g ai/ha) was 0 and the “Plant response rating, Ragweed” value [16] was 0. For the same compound, the “Ragweed plant response rating” value ([16]; 125 g ai/ha) was 0, the “Plant response rating, Kochia” value [17] was 0 and the “Kochia plant response rating” value ([17]; 125 g ai/ha) was 0. For the same compound, the “Plant response rating, Foxtail, Giant” value [18] was 0, the “Foxtail, Giant plant response rating” value ([18]; 125 g ai/ha) was 0 and the “Plant response rating, Barnyardgrass” value [19] was 0. The “Barnyardgrass plant response rating” value ([19]; 125 g ai/ha) was 0, the “Plant response rating, Ryegrass, Italian” value [20] was 0 and the “Ryegrass, Italian plant response rating” value ([20]; 125 g ai/ha) was 0.
With `CC(=O)c1c(Br)cccc1Oc1ncc(Cl)cn1` [Compound 12] the “Plant response rating, Ducksalad” value [1] was 0, the “Plant response rating, Barnyardgrass” value [2] was 0 and the “Plant response rating, Sedge, Umbrella” value [3] was 0. The “Plant response rating, Rice” value [4] was 0, the “Corn plant response rating (0 to 100 scale)” value ([5]; 1000 g ai/ha) was 20 and the “Wheat plant response rating (0 to 100 scale)” value ([6]; 1000 g ai/ha) was 0. For the same compound, the “Pigweed plant response rating (0 to 100 scale)” value ([7]; 1000 g ai/ha) was 100, the “Ragweed plant response rating (0 to 100 scale)” value ([8]; 1000 g ai/ha) was 60 and the “Kochia plant response rating (0 to 100 scale)” value ([9]; 1000 g ai/ha) was 80. For the same compound, the “Blackgrass plant response rating (0 to 100 scale)” value ([10]; 1000 g ai/ha) was 50, the “Foxtail … (0 to 100 scale)” value ([11]; 1000 g ai/ha) was 70 and the “Barnyardgrass plant response rating (0 to 100 scale)” value ([12]; 1000 g ai/ha) was 80. The “Ryegrass … (0 to 100 scale)” value ([13]; 1000 g ai/ha) was 50, the “Galium plant response rating (0 to 100 scale)” value ([14]; 1000 g ai/ha) was 80 and the “Pigweed plant response rating” value ([15]; 1000 g ai/ha) was 100. For the same compound, the “Ragweed plant response rating” value ([16]; 1000 g ai/ha) was 80, the “Kochia plant response rating” value ([17]; 1000 g ai/ha) was 0 and the “Foxtail, Giant plant response rating” value ([18]; 1000 g ai/ha) was 100. For the same compound, the “Barnyardgrass plant response rating” value ([19]; 1000 g ai/ha) was 80 and the “Ryegrass, Italian plant response rating” value ([20]; 1000 g ai/ha) was 40.

Source: patent US11053204B2, “Pyrimidinyloxy benzene derivatives as herbicides” (FMC Corporation, priority 2015, dated 2021)
